Test results as given in US6489329B2, “Pharmaceutical compositions for the treatment of rhinitis” (UCB S.A., priority 1996, dated 2002).
Where a name gives a salt, the structure may show the parent alone.

Assays:
[1] = test system: patients suffering from perennial allergic rhinitis; assay: phase III multicenter double-blind 3-week study in perennial allergic rhinitis; assay type: in vivo, human; details: for Mean of maximal 5-symptom scores, Visit 2: control visit one week after visit 1, investigators' 4-point scale 0-3; for global evaluation by the investigators: patients in categories "Good improvement" and "No more symptoms", grouped: end of treatment (visit 3), capsule morning and evening, 5-point scale; for Mean of maximal 5-symptom scores, Visit 1: enrolment visit, investigators' 4-point scale 0-3; for PDS0 (percentage of days with a maximal symptom score equal to 0), mean / PDS1 (percentage of days with a maximal symptom score inferior or equal to 1), mean: patients' daily record card, five symptoms, 3-week study
Procedure: (§1) The efficacy and safety of a composition of the invention were evaluated for the treatment of rhinitis, especially perennial and seasonal rhinitis, by the following phase III multicenter, double-blind studies. The composition of the invention was compared to:
(§2) For each study, patients enrolled were ranged in three therapeutic groups and were treated as follows:
(§3) The patients' clinical evaluations made by the investigators at the end of the studies were based on a 5-point scale (0=worsening; 1=no change; 2=slight improvement; 3=good improvement; 4=no more symptoms). The Cochran-Mantel-Haenszel test was used to compare the frequency distribution of the three groups, and for specific comparisons.
(§4) At home, patients had to fill a daily record card where the five following symptoms were evaluated: sneezing, runny nose, blocked nose, itchy nose and itchy eyes. The symptoms scores were based on a 4-point scale (0: absent; 1: mild; 2: moderate; 3: severe). […] Global comparisons were made using the Kruskal-Wallis test and specific comparisons were made with the Wilcoxon rank sum test.
(§5) Three visits were planned during the study: enrolment visit (Visit 1), control visit (Visit 2) one week after visit 1 and final visit (Visit 3). At visits 1 and 2, investigators evaluated the specific symptoms of allergic rhinitis (sneezing, rhinorrhea, nasal obstruction, nasal pruritus and ocular pruritus) using the 4-point scale (0: absent; 1: mild; 2: moderate; 3: severe). The rhinitis severity was evaluated by taking into account the maximal score of the five symptoms. The three groups were compared using the Cochran-Mantel-Haenszel test based on ranks.
(§6) The patients were asked about possible adverse events at each control visit. In each treatment group, adverse events were counted and grouped in classes. The frequency distributions of these adverse effect numbers were compared using the Cochran-Mantel-Haenszel test.
A total of 554 patients were enrolled in this 3-week study. These patients ranged in age from 12 to 67 years old. They had to suffer from perennial allergic rhinitis diagnosed at least one year prior to the study, with radio allergosorbent test (RAST) or prick-test positive to perennial allergens including dust, mites and/or animal danders. On enrolment day, patients had to have the following symptoms: nasal obstruction, sneezing and rhinorrhea.

[2] = test system: patients suffering from pollen-associated allergic rhinitis; assay: phase III multicenter double-blind 2-week study in pollen-associated (seasonal) allergic rhinitis; assay type: in vivo, human; details: for Incidence of asthenia / Incidence of headache / Incidence of insomnia / Incidence of somnolence / proportion of patients with at least one adverse effect / PDS0 (percentage of days with a maximal symptom score equal to 0), mean / PDS1 (percentage of days with a maximal symptom score inferior or equal to 1), mean: 2-week study; for Mean of maximal 5-symptom scores, Visit 2: control visit one week after visit 1, investigators' 4-point scale 0-3; for global evaluation: patients in categories "Good improvement" and "No more symptoms", grouped: end of 2-week study, capsule morning and evening, 5-point scale; for Mean of maximal 5-symptom scores, Visit 1: enrolment visit, investigators' 4-point scale 0-3; for PDS0 (percentage of days with a maximal symptom score equal to 0), mean / PDS1 (percentage of days with a maximal symptom score inferior or equal to 1), mean: maximal score of five symptoms
Procedure: as §1, §2, §3, §4, §5, §6
A total of 687 patients enrolled in this 2-week study, their ages ranging from 12 to 67 years. They had to be suffering from pollen-associated allergic rhinitis, with a prick-test or a RAST positive to pollen. […] On enrolment day, the patients had to be experiencing nasal obstruction and at least two of the four following symptoms: sneezing, rhinorrhea, nasal pruritus, ocular pruritus.

Row | Compound | sedation, frequency of adverse event ([1]; comparison between the three groups) | Mean of maximal 5-symptom scores, Visit 2 [1] | global evaluation by the investigators: patients in categories "Good improvement" and "No more symptoms", grouped [1] [%] | Mean of maximal 5-symptom scores, Visit 1 [1] | PDS0 (percentage of days with a maximal symptom score equal to 0), mean [1] [%] | PDS1 (percentage of days with a maximal symptom score inferior or equal to 1), mean [1] [%] | Incidence of asthenia [2] [%] | Incidence of headache [2] [%] | Incidence of insomnia [2] [%] | Incidence of somnolence [2] [%] | proportion of patients with at least one adverse effect [2] [%] | Mean of maximal 5-symptom scores, Visit 2 [2] | global evaluation: patients in categories "Good improvement" and "No more symptoms", grouped [2] [%] | Mean of maximal 5-symptom scores, Visit 1 [2] | PDS0 (percentage of days with a maximal symptom score equal to 0), mean [2] [%] | PDS1 (percentage of days with a maximal symptom score inferior or equal to 1), mean [2] [%]
1 | O=C(O)COCCN1CCN(C(c2ccccc2)c2ccc(Cl)cc2)CC1 (racemic) [Cetirizine, 2-[2-[4-[(4-chlorophenyl)phenylmethyl]-1-piperazinyl]ethoxy]-acetic dihydrochloride] | more frequent | 1.82 | 46 | 2.66 | 6.60 | 43.26 | 4 | 4 | 0 | 6 | 23 | 1.76 | 56 | 2.77 | 6.41 | 39.81
2 | CN[C@@H](C)[C@@H](O)c1ccccc1.Cl [Pseudoephedrine, (1S,2S)2-methylamino-1-phenylpropan-1-ol hydrochloride] | – | 1.81 | 48 | 2.72 | 6.97 | 41.57 | 1 | 7 | 8.5 | 3 | 30 | 1.82 | 58 | 2.78 | 5.44 | 37.21
